According to patent US20110039721A1, “METHOD FOR PREDICTION ABOUT CARCINOGENICITY OF SUBSTANCE IN RODENT” (Chemicals Evaluation and Research Institute, priority 2007, published 2011):

How the values were obtained:
[1] = test system: mRNA expressed from the genes (A) to (D) in rat liver; assay: Behavior of genes (mRNA expression level, oligo-DNA microarray) in rat liver after 28-day oral administration; type: in vivo
How it was run: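 Oral gavage, once daily × 28 days; male F344 SPF rats, 5 wk, n=4/group; vehicle controls given equal solvent volume. Liver excised day 28, total RNA purified. Significance: ≥1.5× or ≤1/1.5 of vehicle, direction concordant with other carcinogens.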

rodent = conditions: in vivo; cited from earlier work
liver = conditions: in vivo; cited from earlier work
[2] = (C), Unigene Rn.120914, defined direction +, rat liver, oral once daily 28 days
[3] = gene group (A), Unigene No. Rn.167075, mRNA vs vehicle control group
[4] = gene group (C), Unigene No. Rn.120914, mRNA vs vehicle control group

Cc1ccc(N)cc1N [TS004, 2,4-Diaminotoluene]
−: Behavior of gene caused by administration of chemical substance, Gene No. 2045 ([1]; (B), Unigene Rn.19329, defined direction +, rat liver, oral once daily 28 days) | Behavior of gene caused by administration of chemical substance, Gene No. 2203 ([1]; (B), Unigene Rn.21240, defined direction +, rat liver, oral once daily 28 days) | Behavior of gene caused by administration of chemical substance, Gene No. 533 ([1]; (C), Unigene Rn.106184, defined direction +, rat liver, oral once daily 28 days) | Behavior of gene caused by administration of chemical substance, Gene No. 1163 ([1]; (C), Unigene Rn.11766, defined direction +, rat liver, oral once daily 28 days) | Behavior of gene caused by administration of chemical substance, Gene No. 4973 ([1]; (C), Unigene Rn.118529, defined direction −, rat liver, oral once daily 28 days) | Behavior of gene caused by administration of chemical substance, Gene No. 4095 ([1]; (C), Unigene Rn.119024, defined direction −, rat liver, oral once daily 28 days) | Behavior of gene caused by administration of chemical substance, Gene No. 1334 [1, 2] | Behavior of gene caused by administration of chemical substance, Gene No. 6620 [1, 2] | Behavior of gene caused by administration of chemical substance, Gene No. 6303 ([1]; (C), Unigene Rn.123063, defined direction −, rat liver, oral once daily 28 days) | Behavior of gene caused by administration of chemical substance, Gene No. 5878 ([1]; (C), Unigene Rn.143213, defined direction −, rat liver, oral once daily 28 days) | Behavior of gene caused by administration of chemical substance, Gene No. 1131 ([1]; (C), Unigene Rn.144946, defined direction −, rat liver, oral once daily 28 days) | Behavior of gene caused by administration of chemical substance, Gene No. 1562 ([1]; (C), Unigene Rn.14744, defined direction −, rat liver, oral once daily 28 days) | Behavior of gene caused by administration of chemical substance, Gene No. 1741 ([1]; (C), Unigene Rn.1647, defined direction −, rat liver, oral once daily 28 days) | Behavior of gene caused by administration of chemical substance, Gene No. 893 ([1]; (C), Unigene Rn.164817, defined direction +, rat liver, oral once daily 28 days) | Behavior of gene caused by administration of chemical substance, Gene No. 6026 ([1]; (C), Unigene Rn.167685, defined direction −, rat liver, oral once daily 28 days) | Behavior of gene caused by administration of chemical substance, Gene No. 154 ([1]; (C), Unigene Rn.185941, defined direction −, rat liver, oral once daily 28 days) | Behavior of gene caused by administration of chemical substance, Gene No. 1993 ([1]; (C), Unigene Rn.18728, defined direction −, rat liver, oral once daily 28 days) | Behavior of gene caused by administration of chemical substance, Gene No. 813 ([1]; (C), Unigene Rn.201760, defined direction +, rat liver, oral once daily 28 days) | Behavior of gene caused by administration of chemical substance, Gene No. 2494 ([1]; (C), Unigene Rn.23969, defined direction +, rat liver, oral once daily 28 days) | Behavior of gene caused by administration of chemical substance, Gene No. 2546 ([1]; (C), Unigene Rn.24561, defined direction −, rat liver, oral once daily 28 days) | Behavior of gene caused by administration of chemical substance, Gene No. 3776 ([1]; (C), Unigene Rn.43232, defined direction −, rat liver, oral once daily 28 days) | Behavior of gene caused by administration of chemical substance, Gene No. 3929 ([1]; (C), Unigene Rn.4620, defined direction +, rat liver, oral once daily 28 days) | Behavior of gene caused by administration of chemical substance, Gene No. 1119 ([1]; (C), Unigene Rn.9757, defined direction +, rat liver, oral once daily 28 days) | Behavior of gene caused by administration of chemical substance, Gene No. 6742 ([1]; (C), Unigene Rn.9779, defined direction +, rat liver, oral once daily 28 days) | Behavior of gene caused by administration of chemical substance, Gene No. 5634 ([1]; (C), Unigene Rn.9862, defined direction −, rat liver, oral once daily 28 days) | Behavior of gene caused by administration of chemical substance, Gene No. 5726 ([1]; (D), Unigene Rn.9939, defined direction −, rat liver, oral once daily 28 days)
Cr+: Liver carcinogenicity (liver)
C+: Carcinogenicity (rodent)
+: Behavior of gene caused by administration of chemical substance, Gene No. 4846 ([1]; (A), Unigene Rn.144554, defined direction +, rat liver, oral once daily 28 days) | Behavior of gene caused by administration of chemical substance, Gene No. 4218 ([1]; (A), Unigene Rn.167075, defined direction +, rat liver, oral once daily 28 days, significant = 1.5 times or more or 1/1.5 or less of control) | Behavior of gene caused by administration of chemical substance, Gene No. 2026 ([1]; (A), Unigene Rn.167075, defined direction −, rat liver, oral once daily 28 days) | Behavior of gene caused by administration of chemical substance, Gene No. 6182 ([1]; (A), Unigene Rn.5834, defined direction +, rat liver, oral once daily 28 days) | Behavior of gene caused by administration of chemical substance, Gene No. 5600 ([1]; (A), Unigene Rn.9836, defined direction +, rat liver, oral once daily 28 days) | Behavior of gene caused by administration of chemical substance, Gene No. 1494 ([1]; (B), Unigene Rn.1430, defined direction −, rat liver, oral once daily 28 days) | Behavior of gene caused by administration of chemical substance, Gene No. 725 ([1]; (C), Unigene Rn.108075, defined direction −, rat liver, oral once daily 28 days)

Cc1c(N)cccc1N [TS005, 2,6-Diaminotoluene]
+: Behavior of gene caused by administration of chemical substance, Gene No. 1131 ([1]; gene group (C), Unigene No. Rn.144946, mRNA vs vehicle control group)
Cr−: Liver carcinogenicity (liver)
C−: Carcinogenicity (rodent)
−: Behavior of gene caused by administration of chemical substance, Gene No. 4846 ([1]; gene group (A), Unigene No. Rn.144554, mRNA vs vehicle control group) | Behavior of gene caused by administration of chemical substance, Gene No. 2026 [1, 3] | Behavior of gene caused by administration of chemical substance, Gene No. 4218 [1, 3] | Behavior of gene caused by administration of chemical substance, Gene No. 6182 ([1]; gene group (A), Unigene No. Rn.5834, mRNA vs vehicle control group) | Behavior of gene caused by administration of chemical substance, Gene No. 5600 ([1]; gene group (A), Unigene No. Rn.9836, mRNA vs vehicle control group) | Behavior of gene caused by administration of chemical substance, Gene No. 1494 ([1]; gene group (B), Unigene No. Rn.1430, mRNA vs vehicle control group) | Behavior of gene caused by administration of chemical substance, Gene No. 2045 ([1]; gene group (B), Unigene No. Rn.19329, mRNA vs vehicle control group) | Behavior of gene caused by administration of chemical substance, Gene No. 2203 ([1]; gene group (B), Unigene No. Rn.21240, mRNA vs vehicle control group) | Behavior of gene caused by administration of chemical substance, Gene No. 533 ([1]; gene group (C), Unigene No. Rn.106184, mRNA vs vehicle control group) | Behavior of gene caused by administration of chemical substance, Gene No. 725 ([1]; gene group (C), Unigene No. Rn.108075, mRNA vs vehicle control group) | Behavior of gene caused by administration of chemical substance, Gene No. 1163 ([1]; gene group (C), Unigene No. Rn.11766, mRNA vs vehicle control group) | Behavior of gene caused by administration of chemical substance, Gene No. 4973 ([1]; gene group (C), Unigene No. Rn.118529, mRNA vs vehicle control group) | Behavior of gene caused by administration of chemical substance, Gene No. 4095 ([1]; gene group (C), Unigene No. Rn.119024, mRNA vs vehicle control group) | Behavior of gene caused by administration of chemical substance, Gene No. 1334 [1, 4] | Behavior of gene caused by administration of chemical substance, Gene No. 6620 [1, 4] | Behavior of gene caused by administration of chemical substance, Gene No. 6303 ([1]; gene group (C), Unigene No. Rn.123063, mRNA vs vehicle control group) | Behavior of gene caused by administration of chemical substance, Gene No. 5878 ([1]; gene group (C), Unigene No. Rn.143213, mRNA vs vehicle control group) | Behavior of gene caused by administration of chemical substance, Gene No. 1562 ([1]; gene group (C), Unigene No. Rn.14744, mRNA vs vehicle control group) | Behavior of gene caused by administration of chemical substance, Gene No. 1741 ([1]; gene group (C), Unigene No. Rn.1647, mRNA vs vehicle control group) | Behavior of gene caused by administration of chemical substance, Gene No. 893 ([1]; gene group (C), Unigene No. Rn.164817, mRNA vs vehicle control group) | Behavior of gene caused by administration of chemical substance, Gene No. 6026 ([1]; gene group (C), Unigene No. Rn.167685, mRNA vs vehicle control group) | Behavior of gene caused by administration of chemical substance, Gene No. 154 ([1]; gene group (C), Unigene No. Rn.185941, mRNA vs vehicle control group) | Behavior of gene caused by administration of chemical substance, Gene No. 1993 ([1]; gene group (C), Unigene No. Rn.18728, mRNA vs vehicle control group) | Behavior of gene caused by administration of chemical substance, Gene No. 813 ([1]; gene group (C), Unigene No. Rn.201760, mRNA vs vehicle control group) | Behavior of gene caused by administration of chemical substance, Gene No. 2494 ([1]; gene group (C), Unigene No. Rn.23969, mRNA vs vehicle control group) | Behavior of gene caused by administration of chemical substance, Gene No. 2546 ([1]; gene group (C), Unigene No. Rn.24561, mRNA vs vehicle control group) | Behavior of gene caused by administration of chemical substance, Gene No. 3776 ([1]; gene group (C), Unigene No. Rn.43232, mRNA vs vehicle control group) | Behavior of gene caused by administration of chemical substance, Gene No. 3929 ([1]; gene group (C), Unigene No. Rn.4620, mRNA vs vehicle control group) | Behavior of gene caused by administration of chemical substance, Gene No. 1119 ([1]; gene group (C), Unigene No. Rn.9757, mRNA vs vehicle control group) | Behavior of gene caused by administration of chemical substance, Gene No. 6742 ([1]; gene group (C), Unigene No. Rn.9779, mRNA vs vehicle control group) | Behavior of gene caused by administration of chemical substance, Gene No. 5634 ([1]; gene group (C), Unigene No. Rn.9862, mRNA vs vehicle control group) | Behavior of gene caused by administration of chemical substance, Gene No. 5726 ([1]; gene group (D), Unigene No. Rn.9939, mRNA vs vehicle control group)
